Results taken from publication PMC9374667 (Communications Biology, 2022).
Values joined by “and” are separate entries in the source; they are usually repeats but may differ in a detail not shown here. Identical values can stand only once.

Assays:
db/db mice [1] = experiment: Serum CHO, TG, FFA, LDL-C, HDL-C and ADPN in the fasted state; assay type: in vivo
Description: The serum was collected by centrifugation at 3000 × g at 4 °C for 15 min and stored at −80 °C until analysis. TG, TC, LDL-C, HDL-C, and FFA were routinely tested on a Chemray 240 automatic biochemical analyzer (Chemray 240, Shenzhen, China). Serum levels of mouse adiponectin, interleukin6 (IL-6), tumor necrosis factor-α (TNF-α) were measured using commercial enzyme-linked immunosorbent assay (ELISA) kits (Nanjing Jiancheng Bioengineering Institute, Nanjing, China) and according to the manufacturer’s instructions. The levels of IL-6, TNF-α in 3T3-L1 adipocyte culture supernatant were also detected by ELISA.

db/db mice [2] = experiment: Fasting serum insulin levels (ELISA); assay type: in vivo; settings: 150mg/kg, individual animals
Description: Mice were fasted for 4 h for insulin resistance test and intraperitoneally injected with 1 unit/kg of insulin. Blood glucose levels were measured from the tail vein blood at 0, 15, 30, 45, 60, 90, and 120 min after injection. Plasma insulin levels were measured using an ultrasensitive mouse insulin ELISA kit (Nanjing Jiancheng Bioengineering Institute, Nanjing, China).

db/db mice [3] = experiment: Body weight of db/db mice during 35-day treatment; assay type: in vivo
Description: (§1) The lean wild type control and the db/db control mice were given equal vehicle volume (0.5% CMC-Na solution). All mice were monitored for food intake, body weight, and fasting blood glucose during the 35-day trial. Glucose tolerance test (GTT) and insulin resistance test (ITT) were performed at 4 and 5 weeks of treatment, respectively. Metabolic analysis was performed at 5 weeks of treatment. At the end of the study, blood samples were taken through the retroorbital venous sinus of mice, fat depots (brown fat, inguinal subcutaneous fat, epididymal fat, perirenal fat and mesenteric fat depot) were dissected, weighed, and immediately frozen in liquid nitrogen and stored at −80 °C until required. Weight of fat depots are expressed in percentage (fat depots weight /bodyweight * 100%).

db/db mice [4] = experiment: Glucose tolerance test (GTT); assay type: in vivo; settings: 150mg/kg
db/db mice [5] = experiment: Fat depots weight (BAT, iWAT, eWAT; percentage of body weight); assay type: in vivo
Description: as §1

[6] = pH of the solution after 24 hours of the dissolution test; assay type: physicochemical
Description: Solubilities were determined by adding excess sample to 30 mL different mediums, such as HCl solution, acetate buffer, phosphate buffer, SGF, FaSSIF and FeSSIF. The configuration of various buffer solutions is shown in Supplementary Table 2. After being shaken at 400 rpm at 37 °C for 0.5, 1, 2, and 24 h, 0.3 mL of suspension was sampled and centrifuged at 14,000 rpm for 8 min to isolate mother liquor, and then analyzed by HPLC after dilution. All samples were analyzed in triplicate. […]
into a 1000 mL flask followed by addition of about 800 mL of deionized water. The mixture is stirred until all solids are dissolved.
Add about 100 mL of 0.1 N HCl, check pH value with a pH meter and adjust the pH to 2.0 with HCl (1 N) or NaOH (1 N). Then dilute to the volume with deionized water.
* 1N sodium hydroxide: Weigh 8 g NaOH in a 200 mL plastic volumetric flask, add deionized water to volume and mix well. […]
phosphate and 3.093 g sodium chloride in a 500 mL volumetric flask, add about 0.450 L deionized water, and adjust the pH to 6.5 with 1N sodium hydroxide or 1 N hydrochloric acid. Make up to volume (0.5 […]
Step 2: Place and dissolve 1.120 g FaSSIF/FeSSIF/FaSSGF instant powder with 0.250 L of buffer (from step 1) in a 500 mL volumetric flask, then add buffer (from step 1) to volume, and mix well. […]
g sodium chloride in a 500 mL volumetric flask, add about 0.450 L deionized water, and adjust the pH to 5.0 with 1 N sodium hydroxide or 1 N hydrochloric acid. Make up to volume (500 mL) with
Step 2: Place and dissolve 5.600 g FaSSIF/FeSSIF/FaSSGF instant […]
0.750 L deionized water. Make up to volume (1000 mL) with deionized water and placed overnight.
(1 picture or pasted object on this page, not shown here)

[7] = 150mg/kg, serum, individual animals
[8] = db/db mice, vs vehicle, BJ 75 and 150 mg/kg, BBR 150 mg/kg, Ibu 150 mg/kg

Q: For `CC(C)Cc1ccc(C(C)C(=O)O)cc1` (centres unmarked) [Ibu, Ibuprofen, reference compound], which CHO (db/db mice [1]; [7]) is on record?
A: 4.079 mmol/L and 3.798 mmol/L and 4.949 mmol/L and 5.236 mmol/L and 4.727 mmol/L and 4.145 mmol/L

Q: And the FFA (db/db mice [1]; [7])?
A: 912.261 µmol/L and 870.411 µmol/L and 861.968 µmol/L and 886.564 µmol/L and 965.859 µmol/L and 978.341 µmol/L

Q: And the HDL-C (db/db mice [1]; [7])?
A: 1.7462 mmol/L and 1.7831 mmol/L and 1.9083 mmol/L and 2.0311 mmol/L

Q: And the LDL-C (db/db mice [1]; [7])?
A: 5.9624 mmol/L and 6.6672 mmol/L and 7.0004 mmol/L and 6.9602 mmol/L and 5.8098 mmol/L and 6.6236 mmol/L

Q: What about the “Mouse ADPN” value (db/db mice [1]; [7]) of the same compound?
A: 593.01 ng/mL and 440.43 ng/mL and 462.23 ng/mL and 556.39 ng/mL and 491.43 ng/mL and 431.93 ng/mL

Q: And the TG (db/db mice [1]; [7])?
A: 1.761 mmol/L and 1.861 mmol/L and 1.959 mmol/L and 1.91 mmol/L and 1.579 mmol/L and 1.279 mmol/L

Q: And the “Serum levels of CHO, TG, FFA and LDL-C” value (db/db mice [1]; [8])?
A: not significantly different

Q: What about the “Serum levels of HDL-C and adiponectin (ADPN)” value (db/db mice [1]; [8]) of the same compound?
A: not significantly different

Q: And the Insulin (db/db mice [2])?
A: 16.07 mIU/L and 14.41 mIU/L and 14.02 mIU/L and 15.71 mIU/L and 12.42 mIU/L and 14.35 mIU/L

Q: What about the “Body weight” value (db/db mice [3]; 150mg/kg, day 1, individual animals, in g (unit assumed)) of the same compound?
A: 38.2 and 39.7

Q: And the “Body weight” value (db/db mice [3]; 150mg/kg, day 4, individual animals, in g (unit assumed))?
A: 40.6 and 39.7

Q: And the “Body weight” value (db/db mice [3]; 150mg/kg, day 19, individual animals, in g (unit assumed))?
A: 48.2

Q: And the “Body weight” value (db/db mice [3]; 150mg/kg, day 22, individual animals, in g (unit assumed))?
A: 50.5

Q: And the “Body weight” value (db/db mice [3]; 150mg/kg, day 25, individual animals, in g (unit assumed))?
A: 51.6 and 48.5

Q: And the “Body weight” value (db/db mice [3]; 150mg/kg, day 28, individual animals, in g (unit assumed))?
A: 49.3 and 49.1 and 52.6 and 48.8 and 51.3

Q: And the “Body weight” value (db/db mice [3]; 150mg/kg, day 31, individual animals, in g (unit assumed))?
A: 48.5 and 50.3 and 53 and 48.8 and 51.4

Q: What about the “Body weight” value (db/db mice [3]; 150mg/kg, day 34, individual animals, in g (unit assumed)) of the same compound?
A: 51.2 and 54.1 and 50.2 and 52.2

Q: What about the “Body weight gain (day 34 minus day 1)” value (db/db mice [3]; 150mg/kg, individual animals, in g (unit assumed)) of the same compound?
A: 12.5 and 9.1 and 9.9 and 9.2 and 12.8 and 12

Q: And the “Body weight compared with vehicle” value (db/db mice [3]; db/db mice, 5 weeks, BJ 75 and 150 mg/kg, BBR 150 mg/kg, Ibu 150 mg/kg)?
A: did not observe any significant difference in body weight

Q: And the “Blood Glucose (Figure S9p)” value (db/db mice [4]; time 0, individual animals)?
A: 23.3 mmol/L and 18.9 mmol/L and 18.7 mmol/L and 22.0 mmol/L

Q: What about the “Blood Glucose (Figure S9p)” value (db/db mice [4]; time 15, individual animals) of the same compound?
A: 33.3 mmol/L

Q: What about the “Blood Glucose (Figure S9p)” value (db/db mice [4]; time 30, individual animals) of the same compound?
A: 33.3 mmol/L

Q: And the “Blood Glucose (Figure S9p)” value (db/db mice [4]; time 45, individual animals)?
A: 33.3 mmol/L

Q: What about the “Blood Glucose (Figure S9p)” value (db/db mice [4]; time 60, individual animals) of the same compound?
A: 33.3 mmol/L and 31.7 mmol/L and 32.4 mmol/L

Q: What about the “Blood Glucose (Figure S9p)” value (db/db mice [4]; time 90, individual animals) of the same compound?
A: 33.3 mmol/L and 29.2 mmol/L and 22.9 mmol/L

Q: And the “Blood Glucose (Figure S9p)” value (db/db mice [4]; time 120, individual animals)?
A: 30.3 mmol/L and 22.8 mmol/L and 23.9 mmol/L

Q: What about the “Fat Depots Weight, BAT” value (db/db mice [5]; 150mg/kg, individual animals) of the same compound?
A: 1.27 g and 2.12 g and 1.64 g and 1.62 g and 1.65 g and 1.78 g

Q: What about the “Fat Depots Weight, eWAT” value (db/db mice [5]; 150mg/kg, individual animals) of the same compound?
A: 3.22 g and 3.09 g and 3.41 g and 3.43 g and 3.15 g and 3.78 g

Q: What about the “Fat Depots Weight, iWAT” value (db/db mice [5]; 150mg/kg, individual animals) of the same compound?
A: 3.71 g and 3.4 g and 3.36 g and 4.03 g and 3.78 g and 4.01 g

Q: And the “Fat depots weight / body weight” value (db/db mice [5]; 150mg/kg, individual animals)?
A: 19.7809% and 19.1502% and 20.6641% and 20.9797%

Q: What about the “Fat depots weight compared with vehicle” value (db/db mice [5]; db/db mice, BJ 75 and 150 mg/kg, BBR 150 mg/kg, Ibu 150 mg/kg) of the same compound?
A: not significantly different

Q: What about the “pH of the solution after 24 hours” value ([6]; Acetate buffer, blank vehicle 4.54) of the same compound?
A: 4.56

Q: And the “pH of the solution after 24 hours” value ([6]; CMC-Na, blank vehicle 6.51)?
A: 5.57

Q: What about the “pH of the solution after 24 hours” value ([6]; FaSSIF-v1, blank vehicle 6.51) of the same compound?
A: 6.04

Q: What about the “pH of the solution after 24 hours” value ([6]; FeSSIF-v1, blank vehicle 5.04) of the same compound?
A: 5.05

Q: What about the “pH of the solution after 24 hours” value ([6]; HCl solution, blank vehicle 1.08) of the same compound?
A: 1.07

Q: And the “pH of the solution after 24 hours” value ([6]; Phosphate buffer, blank vehicle 6.84)?
A: 6.60

Q: And the “pH of the solution after 24 hours” value ([6]; SGF, blank vehicle 2.03)?
A: 2.00
